Reference: PubChem BioAssay AID2060500 (Molecular Pharmacology Branch, DTP, NCI, 2025)
One block for each compound: values may come before it.

Test system: 596521-263-R-J1-PDC complex spheroids, viability % of control
Test: Anticancer human tumor 596521-263-R-J1-PDC patient-derived soft tissue sarcoma cell line growth inhibition [GQUAD]
Details: for IC50: curve of first compound; for viability, T/C: stronger effect = lower value
In short: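 Multi-cell-type spheroids of tumor cells with HUVEC and mesenchymal stem cells, treated with drug combinations. Concentrations descend in half-log steps from near clinical Cmax, or from 10 microM where Cmax is unknown; viability read-out.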

[1] = second compound 0.0316 µM, first compound 0.0316 µM
[2] = second compound 0.0316 µM, first compound 0.1 µM
[3] = second compound 0.0316 µM, first compound 0.316 µM
[4] = second compound 0.0316 µM, first compound 1 µM
[5] = second compound 0.0316 µM, first compound 3.16 µM
[6] = second compound 0.0316 µM, first compound 10 µM
[7] = second compound 0.1 µM, first compound 0.0316 µM
[8] = second compound 0.1 µM, first compound 0.1 µM
[9] = second compound 0.1 µM, first compound 0.316 µM
[10] = second compound 0.1 µM, first compound 1 µM
[11] = second compound 0.1 µM, first compound 3.16 µM
[12] = second compound 0.1 µM, first compound 10 µM
[13] = second compound 0.316 µM, first compound 0.0316 µM
[14] = second compound 0.316 µM, first compound 0.1 µM
[15] = second compound 0.316 µM, first compound 0.316 µM
[16] = second compound 0.316 µM, first compound 1 µM
[17] = second compound 0.316 µM, first compound 3.16 µM
[18] = second compound 0.316 µM, first compound 10 µM
[19] = second compound 1 µM, first compound 0.0316 µM
[20] = second compound 1 µM, first compound 0.1 µM
[21] = second compound 1 µM, first compound 0.316 µM
[22] = second compound 1 µM, first compound 1 µM
[23] = second compound 1 µM, first compound 3.16 µM
[24] = second compound 1 µM, first compound 10 µM
[25] = second compound 3.16 µM, first compound 0.0316 µM
[26] = second compound 3.16 µM, first compound 0.1 µM
[27] = second compound 3.16 µM, first compound 0.316 µM
[28] = second compound 3.16 µM, first compound 1 µM
[29] = second compound 3.16 µM, first compound 3.16 µM
[30] = second compound 3.16 µM, first compound 10 µM
[31] = second compound 10 µM, first compound 0.0316 µM
[32] = second compound 10 µM, first compound 0.1 µM
[33] = second compound 10 µM, first compound 0.316 µM
[34] = second compound 10 µM, first compound 1 µM
[35] = second compound 10 µM, first compound 3.16 µM
[36] = second compound 10 µM, first compound 10 µM
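Also: spheroids exposed to drugs for 7 days before viability reading.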
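For viability, T/C in this document: 100% = DMSO vehicle control viability.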

- IC50 (second compound 0.0316 µM): 0.769 µM
- IC50 (second compound 0.1 µM): 0.481 µM
- IC50 (second compound 0.316 µM): 0.343 µM
- IC50 (second compound 1 µM): 0.592 µM
- IC50 (second compound 3.16 µM): 0.196 µM
- IC50 (second compound 10 µM): < 0.0316 µM
SMILES: C=CCn1c(=O)c2cnc(Nc3ccc(N4CCN(C)CC4)cc3)nc2n1-c1cccc(C(C)(C)O)n1 + Cc1cnc(CNC(=O)c2c(=O)c3ccc(N4CCCN(C)CC4)nc3n3c2sc2ccccc23)cn1
- viability, T/C [1]: 88.4%
- viability, T/C [2]: 79.2%
- viability, T/C [3]: 61.2%
- viability, T/C [4]: 48.8%
- viability, T/C [5]: 32.6%
- viability, T/C [6]: 31.4%
- viability, T/C [7]: 78.3%
- viability, T/C [8]: 72.9%
- viability, T/C [9]: 55.3%
- viability, T/C [10]: 40.8%
- viability, T/C [11]: 38.3%
- viability, T/C [12]: 40.8%
- viability, T/C [13]: 84.8%
- viability, T/C [14]: 62.2%
- viability, T/C [15]: 50.7%
- viability, T/C [16]: 40.9%
- viability, T/C [17]: 38.5%
- viability, T/C [18]: 26.8%
- viability, T/C [19]: 62.9%
- viability, T/C [20]: 60%
- viability, T/C [21]: 58.4%
- viability, T/C [22]: 41.9%
- viability, T/C [23]: 36.5%
- viability, T/C [24]: 24.3%
- viability, T/C [25]: 50.6%
- viability, T/C [26]: 54.3%
- viability, T/C [27]: 49.1%
- viability, T/C [28]: 39.1%
- viability, T/C [29]: 32.7%
- viability, T/C [30]: 25.6%
- viability, T/C [31]: 43.4%
- viability, T/C [32]: 12.9%
- viability, T/C [33]: 36.4%
- viability, T/C [34]: 33.8%
- viability, T/C [35]: 20.8%
- viability, T/C [36]: 0.23%

- IC50 (second compound 0.0316 µM): < 0.0316 µM
- IC50 (second compound 0.1 µM): < 0.0316 µM
- IC50 (second compound 0.316 µM): < 0.0316 µM
- IC50 (second compound 1 µM): < 0.0316 µM
- IC50 (second compound 3.16 µM): < 0.0316 µM
- IC50 (second compound 10 µM): < 0.0316 µM
SMILES: CC(=O)O[C@H]1C(=O)[C@@]2(C)[C@H]([C@H](OC(=O)c3ccccc3)[C@]3(O)C[C@H](OC(=O)[C@H](O)[C@@H](NC(=O)c4ccccc4)c4ccccc4)C(C)=C1C3(C)C)[C@]1(OC(C)=O)CO[C@@H]1C[C@@H]2O + Cc1cnc(CNC(=O)c2c(=O)c3ccc(N4CCCN(C)CC4)nc3n3c2sc2ccccc23)cn1
- viability, T/C [1]: 44%
- viability, T/C [2]: 30.7%
- viability, T/C [3]: 23.5%
- viability, T/C [4]: 27.8%
- viability, T/C [5]: 25.9%
- viability, T/C [6]: 28%
- viability, T/C [7]: 43.7%
- viability, T/C [8]: 25.2%
- viability, T/C [9]: 28.9%
- viability, T/C [10]: 28.8%
- viability, T/C [11]: 29.3%
- viability, T/C [12]: 28.9%
- viability, T/C [13]: 38.5%
- viability, T/C [14]: 30.4%
- viability, T/C [15]: 25.1%
- viability, T/C [16]: 28.1%
- viability, T/C [17]: 29%
- viability, T/C [18]: 30.8%
- viability, T/C [19]: 36.5%
- viability, T/C [20]: 32.5%
- viability, T/C [21]: 28.5%
- viability, T/C [22]: 27.9%
- viability, T/C [23]: 27.7%
- viability, T/C [24]: 31.1%
- viability, T/C [25]: 35.4%
- viability, T/C [26]: 28.1%
- viability, T/C [27]: 24.5%
- viability, T/C [28]: 25.5%
- viability, T/C [29]: 27.6%
- viability, T/C [30]: 32.2%
- viability, T/C [31]: 7.69%
- viability, T/C [32]: 8.44%
- viability, T/C [33]: 7.94%
- viability, T/C [34]: 7.65%
- viability, T/C [35]: 0.28%
- viability, T/C [36]: 0.22%

- IC50 (second compound 0.0316 µM): 1.72 µM
- IC50 (second compound 0.1 µM): 1.32 µM
- IC50 (second compound 0.316 µM): 1.01 µM
- IC50 (second compound 1 µM): 0.83 µM
- IC50 (second compound 3.16 µM): < 0.0316 µM
- IC50 (second compound 10 µM): < 0.0316 µM
SMILES: CC(C)(O)C1CCC(Nc2ccc3ncc(-c4cccc(C(F)(F)F)c4)n3n2)CC1 (stereo unspecified) + Cc1cnc(CNC(=O)c2c(=O)c3ccc(N4CCCN(C)CC4)nc3n3c2sc2ccccc23)cn1
- viability, T/C [1]: 89.8%
- viability, T/C [2]: 82.3%
- viability, T/C [3]: 88.3%
- viability, T/C [4]: 77.7%
- viability, T/C [5]: 18.8%
- viability, T/C [6]: 14.4%
- viability, T/C [7]: 81.9%
- viability, T/C [8]: 79.9%
- viability, T/C [9]: 74.2%
- viability, T/C [10]: 59.5%
- viability, T/C [11]: 20.5%
- viability, T/C [12]: 18.2%
- viability, T/C [13]: 72.3%
- viability, T/C [14]: 69.5%
- viability, T/C [15]: 68.6%
- viability, T/C [16]: 50.5%
- viability, T/C [17]: 18.4%
- viability, T/C [18]: 15.9%
- viability, T/C [19]: 57.6%
- viability, T/C [20]: 53.6%
- viability, T/C [21]: 63.1%
- viability, T/C [22]: 47.8%
- viability, T/C [23]: 21.7%
- viability, T/C [24]: 15.1%
- viability, T/C [25]: 46.6%
- viability, T/C [26]: 46.5%
- viability, T/C [27]: 51.7%
- viability, T/C [28]: 45.2%
- viability, T/C [29]: 0.12%
- viability, T/C [30]: 0.13%
- viability, T/C [31]: 33.3%
- viability, T/C [32]: 13.8%
- viability, T/C [33]: 41.2%
- viability, T/C [34]: 0.19%
- viability, T/C [35]: 0.23%
- viability, T/C [36]: 0.18%
